Earlier results in patent US9428497B2, “Precursor compounds for the radiosynthesis of [18F] norchloro-fluorohomoepibatidine” (priority 2011, dated 2016).
Read-outs that look alike come from different tables or passages of the source.

Legend:
[1] = piglets; compared with 2-[18F]F-A-85380
[2] = mice; compared with 2-[18F]F-A-85380

In the case of [18F]c1ccc(C2CC3CCCC2N3)cn1 (single isomer, unassigned; (-)) [(−)-[^18F]NCFHEB, (−)-[^18F]norchloro-fluoro-homoepibatidine], the “cerebral uptake relative to 2-[18F]F-A-85380” value [1] is given as “more than two times higher” and the “cerebral uptake relative to 2-[18F]F-A-85380” value [2] is given as “more than two times higher”.
